Experimental data reported in ChEMBL document CHEMBL5038584, “Dual-Targeting Antiproliferation Hybrids Derived from 1-Deoxynojirimycin and Kaempferol Induce MCF-7 Cell Apoptosis through the Mitochondria-Mediated Pathway” (J Nat Prod, 2021).
pIC50: −log10 of the molar value. The source made the active and inactive calls. The rule behind the calls is not given here.

Legend:
MCF7 [1] = experiment: Cytotoxicity against human MCF7 cells measured after 48 hrs by MTT assay; format: functional, cell-based; conditions: MCF7, 48 h
HCC1937 = experiment: Cytotoxicity against human HCC1937 cells measured after 48 hrs by MTT assay; format: functional, cell-based; conditions: HCC1937, 48 h
HepG2 = experiment: Cytotoxicity against human HepG2 cells measured after 48 hrs by MTT assay; format: functional, cell-based; conditions: HepG2, 48 h
HCT-116 = experiment: Cytotoxicity against human HCT-116 cells measured after 48 hrs by MTT assay; format: functional, cell-based; conditions: HCT-116, 48 h
BGC-823 = experiment: Cytotoxicity against human BGC-823 cells measured after 48 hrs by MTT assay; format: functional, cell-based; conditions: BGC-823, 48 h
A549 = experiment: Cytotoxicity against human A549 cells measured after 48 hrs by MTT assay; format: functional, cell-based; conditions: A549, 48 h
MCF7 [2] = experiment: Antimigratory activity against human MCF7 cells at 10 uM after 24 hrs by inverted fluorescence microscope analysis relative to control (reference value: 82.9%).; format: functional
MCF7 [3] = experiment: Cell cycle arrest in human MCF7 cells assessed as accumulation of cells at G1 phase at 20 uM measured after 24 hrs by PI staining based flow cytometry assay (reference value: 59.45%); format: functional
MCF7 [4] = experiment: Cell cycle arrest in human MCF7 cells assessed as accumulation of cells at S phase at 20 uM measured after 24 hrs by PI staining based flow cytometry assay (reference value: 25.64%); format: functional
MCF7 [5] = experiment: Cell cycle arrest in human MCF7 cells assessed as accumulation of cells at G2 phase at 20 uM measured after 24 hrs by PI staining based flow cytometry assay (reference value: 14.91%); format: functional
MCF7 [6] = experiment: Induction of apoptosis in human MCF7 cells assessed as viable cells at 20 uM measured after 24 hrs by AnnexinV/[…]-PI staining based flow cytometry method (Rvb =97 %); format: functional; conditions: read-out: Activity
MCF7 [7] = experiment: Induction of apoptosis in human MCF7 cells assessed as early apoptotic cells at 20 uM measured after 24 hrs by AnnexinV/[…]-PI staining based flow cytometry method (Rvb =0.466 %); format: functional
MCF7 [8] = experiment: Induction of apoptosis in human MCF7 cells assessed as late apoptotic cells at 20 uM measured after 24 hrs by AnnexinV/[…]-PI staining based flow cytometry method (Rvb =1.28 %); format: functional
MCF7 [9] = experiment: Induction of apoptosis in human MCF7 cells assessed as necrotic cells at 20 uM measured after 24 hrs by AnnexinV/[…]-PI staining based flow cytometry method (Rvb =1.28 %); format: functional
MCF7 [10] = experiment: Induction of apoptosis in human MCF7 cells assessed as decrease of COX-2 protein level at 10 uM measured after 24 hrs by Western blot assay; format: functional, cell-based
[11] = Lipophilicity, logP of compound by shake flask method; format: physicochemical; conditions: octanol/water
MCF7 [12] = experiment: Anticlonogenic activity against human MCF7 cells assessed as inhibition of colony formation at 5 to 10 uM measured after 48 hrs by crystal violet staining based colony forming assay; format: functional, cell-based; conditions: dose 5-10 µM
MCF7 [13] = experiment: Antimigratory activity against human MCF7 cells at 5 uM after 24 hrs by inverted fluorescence microscope analysis relative to control (reference value: 82.9%); format: functional
MCF7 [14] = experiment: Cell cycle arrest in human MCF7 cells assessed as accumulation of cells at G1 phase at 10 uM measured after 24 hrs by PI staining based flow cytometry assay (reference value: 59.45%); format: functional
MCF7 [15] = experiment: Cell cycle arrest in human MCF7 cells assessed as accumulation of cells at S phase at 10 uM measured after 24 hrs by PI staining based flow cytometry assay (reference value: 25.64%); format: functional
MCF7 [16] = experiment: Cell cycle arrest in human MCF7 cells assessed as accumulation of cells at G2 phase at 10 uM measured after 24 hrs by PI staining based flow cytometry assay (reference value: 14.91%); format: functional
MCF7 [17] = experiment: Induction of apoptosis in human MCF7 cells assessed as cell shrinkage at 20 uM measured after 24 hrs by Hoechst 33342 staining based flourescence microscopy method; format: functional
MCF7 [18] = experiment: Induction of apoptosis in human MCF7 cells assessed as nuclear changes at 20 uM measured after 24 hrs by Hoechst 33342 staining based flourescence microscopy method; format: functional, cell-based
MCF7 [19] = experiment: Induction of apoptosis in human MCF7 cells assessed as viable cells at 10 uM measured after 24 hrs by AnnexinV/[…]-PI staining based flow cytometry method (Rvb =97 %); format: functional; conditions: read-out: Activity
MCF7 [20] = experiment: Induction of apoptosis in human MCF7 cells assessed as early apoptotic cells at 10 uM measured after 24 hrs by AnnexinV/[…]-PI staining based flow cytometry method (Rvb =0.466 %); format: functional
MCF7 [21] = experiment: Induction of apoptosis in human MCF7 cells assessed as late apoptotic cells at 10 uM measured after 24 hrs by AnnexinV/[…]-PI staining based flow cytometry method (Rvb =1.28 %); format: functional
MCF7 [22] = experiment: Induction of apoptosis in human MCF7 cells assessed as necrotic cells at 10 uM measured after 24 hrs by AnnexinV/[…]-PI staining based flow cytometry method (Rvb =1.28 %); format: functional
MCF7 [23] = experiment: Induction of mitochondrial membrane potential loss in human MCF7 cells at 5 to 10 uM measured after 24 hrs by JC-1 staining based flourescence microscopy method; format: functional, cell-based; conditions: dose 5-10 µM
MCF7 [24] = experiment: Induction of apoptosis in human MCF7 cells assessed as increase in intracellular ROS levels at 10 uM measured after 24 hrs by DCFH-DA staining based flow cytometry method; format: functional, cell-based
MCF7 [25] = experiment: Induction of intracellular calcium level in human MCF7 cells at 5 to 10 uM measured after 24 hrs by Fluo-4AM staining based flourescence microscopy method; format: functional, cell-based; conditions: dose 5-10 µM
MCF7 [26] = experiment: Induction of apoptosis in human MCF7 cells assessed as decrease of Bcl2 protein level at 10 uM measured after 24 hrs by Western blot assay; format: functional, cell-based
MCF7 [27] = experiment: Induction of apoptosis in human MCF7 cells assessed as increase of Bax protein level at 10 uM measured after 24 hrs by Western blot assay; format: functional, cell-based
MCF7 [28] = experiment: Induction of apoptosis in human MCF7 cells assessed as increase of Bax/Bcl2 ratio at 10 uM measured after 24 hrs by Western blot assay; format: functional, cell-based
MCF7 [29] = experiment: Induction of apoptosis in human MCF7 cells at 10 uM measured after 24 hrs by AnnexinV/[…]-PI staining based flow cytometry method; format: functional
MCF7 [30] = experiment: Induction of apoptosis in human MCF7 cells at 20 uM measured after 24 hrs by AnnexinV/[…]-PI staining based flow cytometry method; format: functional

| SMILES | pIC50 (MCF7 [1]) | pIC50 (HCC1937) | pIC50 (HepG2) | pIC50 (HCT-116) | pIC50 (BGC-823) | pIC50 (A549) | Activity (MCF7 [2]) | Activity (MCF7 [3]) | Activity (MCF7 [4]) | Activity (MCF7 [5]) | viability at 20 µM (MCF7 [6]) | Activity (MCF7 [7]) | Activity (MCF7 [8]) | Activity (MCF7 [9]) | Activity (MCF7 [10]) | logP [11] | other results |
| --- | --- | --- | --- | --- | --- | --- | --- | --- | --- | --- | --- | --- | --- | --- | --- | --- | --- |
| O=c1c(O)c(-c2ccc(O)cc2)oc2cc(O)cc(O)c12 [KAEMPFEROL] | < 5.00 | < 5.00 | < 5.00 | < 5.00 | < 5.00 | < 5.00 | 79.9% | 53.49% | 29.49% | 7.02% | 95.4% | 0.556% | 2.43% | 1.61% | Active | – | – |
| COc1ccc(-c2oc3cc(OC)cc(OC)c3c(=O)c2OCCCCCN2C[C@H](O)[C@@H](O)[C@H](O)[C@H]2CO)cc1 | < 5.00 | < 5.00 | < 5.00 | < 5.00 | < 5.00 | < 5.00 | – | – | – | – | – | – | – | – | – | 0.49 | – |
| COc1ccc(-c2oc3cc(OC)cc(OC)c3c(=O)c2OCCCCCCCCN2C[C@H](O)[C@@H](O)[C@H](O)[C@H]2CO)cc1 | < 5.00 | < 5.00 | < 5.00 | 5.06 | < 5.00 | 5.12 | – | – | – | – | – | – | – | – | – | 1.65 | – |
| OC[C@H]1NC[C@H](O)[C@@H](O)[C@@H]1O [DUVOGLUSTAT] | < 5.00 | < 5.00 | < 5.00 | < 5.00 | < 5.00 | < 5.00 | 78.4% | 49.59% | 31.41% | 19% | 96.6% | 0.409% | 1.75% | 1.19% | – | -0.68 | – |
| COc1ccc(-c2oc3cc(OC)cc(OC)c3c(=O)c2OCCCCCCCCCCCN2C[C@H](O)[C@@H](O)[C@H](O)[C@H]2CO)cc1 | 5.44 | 5.15 | 5.11 | 5.11 | 5.35 | 5.29 | 46% | 42.64% | 56.48% | 0.87% | 27.3% | 37.9% | 29.9% | 4.83% | Active | 2.92 | Activity (MCF7 [12]): Active; Activity (MCF7 [13]): 56.5%; Activity (MCF7 [14]): 55.3%; Activity (MCF7 [15]): 26.6%; Activity (MCF7 [16]): 18.07%; Activity (MCF7 [17]): Active; Activity (MCF7 [18]): Active; viability at 10 µM (MCF7 [19]): 89.5%; Activity (MCF7 [20]): 0.508%; Activity (MCF7 [21]): 5.97%; Activity (MCF7 [22]): 4.03%; Activity (MCF7 [23]): Active; Activity (MCF7 [24]): Active; Activity (MCF7 [25]): Dose-Dependent Effect; Activity (MCF7 [26]): Active; Activity (MCF7 [27]): Active; Activity (MCF7 [28]): Active; Activity (MCF7 [29]): 6.48%; Activity (MCF7 [30]): 67.8% |
